Assays:
[1] = Cumulative urinary percent recovery of enterally administered tracer, crossover study in healthy adults and adults with Crohn's disease; type: in vivo, human; settings: for percent of administered dose recovered in urine: Crohn's disease patients
Method: (§1) A single center, randomized, open label, crossover study was performed to evaluate a solution containing 18.6 mg/mL of a pyrazine derived fluorophore (MB-102) at 1.5 or 3.0 mg/kg versus DSAT (L, 1000 mg and R, 200 mg) administered enterally.
(§2) To compare the dynamic ranges of the fluorophore and DSAT clearances, healthy adults and adults with evidence of small bowel Crohn's disease on magnetic resonance enterography were enrolled. Participants were randomized to receive either the fluorophore tracer or the sugars on treatment day 1, followed by the other tracer 3-7 days later. Urine was collected at baseline and 1, 2, 4, 6, 8, 10, and 12 hours after tracer ingestion. The cumulative urinary percent recovery of the fluorophore tracer was calculated using an Ultra-Performance Liquid Chromatography system with fluorescence detection and cumulative L, R, and L:R ratios using a normal phase, isocratic HPLC-tandem ESI mass spectrometry.

[2] = test system: rat model of small bowel injury; experiment: Ratio of MB-404 to MB-301 in urine (HPLC) after oral gavage, rat model of small bowel injury; type: in vivo; settings: injured rats (indomethacin-induced bowel injury) compared to control rats
From the text: DSAT was mimicked using two fluorophores with similar molecular weights to mannitol and lactulose, MB-301 and MB-404 (see Table 2).
Furthermore, like both sugars used in the DSAT, MB-301 and MB-404 are not metabolized and are excreted by glomerular filtration, with neither (or negligible) tubular secretion nor reabsorption. To test the ability to distinguish between healthy and diseased gut, a rat model of small bowel injury was used with two injured and two control rats. The day after indomethacin-induced bowel injury, the rats were anaesthetized, a catheter was inserted for urine collection, and both fluorophores were delivered by oral gavage. Urine was collected prior to oral gavage and at a series of time points post-gavage. Concentrations of MB-301 and MB-404 in urine were determined using HPLC, and the ratio of their concentrations was plotted over time in FIG. 1.

[3] = test system: rat model of bowel injury; experiment: Transdermal fluorescence detection of fluorophore after oral gavage, rat model of bowel injury; type: in vivo; settings: monitored continuously
From the text: To probe the ability to assess gut function in a specimen-free and real-time manner, a dual-wavelength transdermal fluorescence detection system was utilized to monitor MB-301 and MB-404 in the rat model of bowel injury. […] Following anaesthetization, the fluorescence detection system was affixed with medical adhesive to a depilated area on the back of each rat. Transdermal fluorescence monitoring was then initiated to detect baseline fluorescence prior to delivery of MB-301 and MB-404 by oral gavage, and was monitored continuously. The concentration of MB-301 as determined by transdermal fluorescence measurements remained low in both injured and control animals (FIG. 2, dashed lines) as this fluorophore is comparatively rapidly absorbed by the small intestine and subsequently cleared. […] Therefore, transdermal detection of MB-301 and MB-404 fluorescence can be used to provide a non-invasive, real-time indication of gut health.
(§3) To this end, MB-102 was tested in the rat model of small bowel injury (FIGS. 4A and 4B). Transdermal measurements were initiated prior to oral gavage of MB-102 and transdermal measurements, alongside urine, were collected over time. Based on urine samples the Percent of Administered Dose Recovered was higher in rats with bowel injury than controls (FIG. 4A).

[4] = test system: rat model of small bowel injury; experiment: Percent of administered dose of MB-102 recovered in urine, rat model of small bowel injury; type: in vivo; settings: rats with bowel injury compared to controls; oral gavage
Method: as §3

[5] = MB-102 plasma concentration (HPLC) after oral dose in healthy and Crohn's disease participants; type: in vivo, human; settings: for concentration at 360 min / concentration at 720 min: human, plasma, po
Method: In addition, two healthy participants and one participant with Crohn's disease were administered an oral dose of MB-102, and blood samples were collected at 6 and 12 hours post-administration. MB-102 plasma concentration levels were determined by HPLC.

[6] = Safety and tolerability of orally administered MB-102 in the human study; type: in vivo
Method: as §1, §2
5 healthy adults and 4 adults with Crohn's disease completed the study without serious adverse events. […] At 12 hours post-dose in the healthy participants, approximately 0.5% to 1.0% of the administered dose was recovered, reflecting the inability of MB-102 to transverse the intestinal barrier when gut permeability is normal. […]

[7] = Control Participants, 360 min post-administration
[8] = Control Participants, 720 min post-administration

OC[C@H]1O[C@@H](O[C@@H]2[C@@H](CO)OC(O)(CO)[C@H]2O)[C@H](O)[C@@H](O)[C@H]1O (mixture of isomers) [lactulose, reference compound]
percent of administered dose recovered in urine [1]: wide range

O=C(NCC(O)CO)c1nc(NC[C@H](O)CO)c(C(=O)NCC(O)CO)nc1NC[C@H](O)CO (stereo partly drawn) [MB-404, N^2,N^5-bis(2,3-dihydroxypropyl)-3,6-bis[(S)-2,3-dihydroxypropylamino]pyrazine-2,5-dicarboxamide]
ratio of MB-404 to MB-301 in urine [2]: higher
concentration as determined by transdermal fluorescence measurements ([3]; control animals): remained low
concentration as determined by transdermal fluorescence measurements ([3]; injured animals): increased over time

Nc1nc(C(=O)N[C@H](CO)C(=O)O)c(N)nc1C(=O)N[C@H](CO)C(=O)O [MB-102, 3,6-diamino-2,5-bis{N-[(1R)-1-carboxy-2-hydroxyethyl]carbamoyl}pyrazine]
Percent of Administered Dose Recovered (urine) [4]: higher
percent of administered dose recovered in urine [1]: wide range
urine excretion ([1]; diseased participants with respect to controls, oral administration): increased
MB-102 urine recovery ([1]; patients in remission when the study was performed): near normal values
Plasma Concentration [5, 7]: 21.3 ng/mL
Plasma Concentration [5, 8]: 16.7 ng/mL
concentration at 360 min [5, 7]: 21.2 ng/mL
concentration at 720 min [5, 8]: 16.8 ng/mL
concentration at 360 min ([5]; Crohn's Disease Participant, 360 min post-administration): 63.1 ng/mL
concentration at 720 min ([5]; Crohn's Disease Participant, 720 min post-administration): 26.5 ng/mL
serious adverse events ([6]; 5 healthy adults and 4 adults with Crohn's disease): no serious adverse events
tolerability ([6]; healthy adults and adults with Crohn's disease): well tolerated

Nc1nc(C(=O)O)c(N)nc1C(=O)O [MB-301, 3,6-diamino-2,5-pyrazine-dicarboxylic acid]
concentration as determined by transdermal fluorescence measurements ([3]; control animals): remained low
concentration as determined by transdermal fluorescence measurements ([3]; injured animals): remained low

— US20220326255A1, “METHODS OF MONITORING MUCOSAL HEALING” (MediBeacon Inc., priority 2021, published 2022)
